Numbers after ± are expanded uncertainties.
Settings: 323.15 K, Liquid, Vibrating tube method

CCCCCCCC(=O)OCC(COC(=O)CCCCCCC)(COC(=O)CCCCCCC)COC(=O)CCCCCCC [pentaerythritol tetraoctanoate]
Settings	mass density [kg/m3]
16301 kPa	951.3 ± 1.2
16330 kPa	951.2 ± 1.2
16376 kPa	951.3 ± 1.2
16399 kPa	951.4 ± 1.2
16422 kPa	951.4 ± 1.2
16451 kPa	951.3 ± 1.2
16486 kPa	951.5 ± 1.2
16514 kPa	951.3 ± 1.2
16560 kPa	951.4 ± 1.2
16590 kPa	951.6 ± 1.2
16619 kPa	951.6 ± 1.2
16654 kPa	951.5 ± 1.2
16683 kPa	951.5 ± 1.2
16714 kPa	951.6 ± 1.2
16744 kPa	951.6 ± 1.2
16780 kPa	951.7 ± 1.2
16810 kPa	951.5 ± 1.2
16846 kPa	951.5 ± 1.2
16876 kPa	951.7 ± 1.2
16907 kPa	951.6 ± 1.2
16937 kPa	951.7 ± 1.2
16974 kPa	951.6 ± 1.2
17005 kPa	951.8 ± 1.2
17037 kPa	951.9 ± 1.2
17074 kPa	951.8 ± 1.2
17106 kPa	951.8 ± 1.2
17140 kPa	951.8 ± 1.2
17172 kPa	951.9 ± 1.2
17203 kPa	951.8 ± 1.2
17241 kPa	951.9 ± 1.2
17266 kPa	951.9 ± 1.2
17311 kPa	951.8 ± 1.2
17344 kPa	951.9 ± 1.2
17376 kPa	951.9 ± 1.2
17414 kPa	952 ± 1.2
17448 kPa	951.9 ± 1.2
17480 kPa	952 ± 1.2
17513 kPa	951.9 ± 1.2
17554 kPa	952 ± 1.2
17583 kPa	952.2 ± 1.2
17622 kPa	952.1 ± 1.2
17656 kPa	952.1 ± 1.2
17696 kPa	952.2 ± 1.2
17730 kPa	952.1 ± 1.2
17763 kPa	952.1 ± 1.2
17797 kPa	952.3 ± 1.2
17838 kPa	952.3 ± 1.2
17872 kPa	952.2 ± 1.2
17907 kPa	952.2 ± 1.2
17948 kPa	952.3 ± 1.2
17984 kPa	952.3 ± 1.2
18019 kPa	952.4 ± 1.2
18055 kPa	952.5 ± 1.2
18097 kPa	952.4 ± 1.2
18132 kPa	952.3 ± 1.2
18168 kPa	952.3 ± 1.2
18210 kPa	952.5 ± 1.2
18246 kPa	952.5 ± 1.2
18282 kPa	952.4 ± 1.2
18325 kPa	952.6 ± 1.2
18361 kPa	952.5 ± 1.2
18398 kPa	952.7 ± 1.2
18442 kPa	952.6 ± 1.2
18479 kPa	952.7 ± 1.2
18516 kPa	952.6 ± 1.2
18554 kPa	952.7 ± 1.2
18599 kPa	952.7 ± 1.2
18637 kPa	952.7 ± 1.2
18682 kPa	952.7 ± 1.2
18720 kPa	952.8 ± 1.2
18758 kPa	952.8 ± 1.2
18796 kPa	952.7 ± 1.2
18843 kPa	952.9 ± 1.2
18882 kPa	952.8 ± 1.2
18922 kPa	952.9 ± 1.2
18970 kPa	953 ± 1.2
19012 kPa	953 ± 1.2
19056 kPa	953 ± 1.2
19097 kPa	953 ± 1.2
19139 kPa	953.1 ± 1.2
19166 kPa	952.9 ± 1.2
19197 kPa	953.2 ± 1.2
19223 kPa	953.1 ± 1.2
19250 kPa	953.1 ± 1.2
19282 kPa	953 ± 1.2
19308 kPa	953.1 ± 1.2
19341 kPa	953.3 ± 1.2
19368 kPa	953.2 ± 1.2
19395 kPa	953.2 ± 1.2
19422 kPa	953.3 ± 1.2
19456 kPa	953.2 ± 1.2
19483 kPa	953.2 ± 1.2
19511 kPa	953.2 ± 1.2
19543 kPa	953.4 ± 1.2
19571 kPa	953.3 ± 1.2
19603 kPa	953.2 ± 1.2
19632 kPa	953.3 ± 1.2
19660 kPa	953.4 ± 1.2
19688 kPa	953.4 ± 1.2
19722 kPa	953.4 ± 1.2
19750 kPa	953.4 ± 1.2
19778 kPa	953.4 ± 1.2
19812 kPa	953.4 ± 1.2
19842 kPa	953.6 ± 1.2
19871 kPa	953.4 ± 1.2
19905 kPa	953.5 ± 1.2
19934 kPa	953.4 ± 1.2
19962 kPa	953.5 ± 1.2
19997 kPa	953.5 ± 1.2
20055 kPa	953.4 ± 1.2
20090 kPa	953.6 ± 1.2
20119 kPa	953.6 ± 1.2
20149 kPa	953.7 ± 1.2
20185 kPa	953.7 ± 1.2
20216 kPa	953.7 ± 1.2
20246 kPa	953.7 ± 1.2
20276 kPa	953.7 ± 1.2
20307 kPa	953.8 ± 1.2
20343 kPa	953.7 ± 1.2
20373 kPa	953.7 ± 1.2
20404 kPa	953.7 ± 1.2
20441 kPa	953.8 ± 1.2
20471 kPa	953.8 ± 1.2
20502 kPa	953.9 ± 1.2
20538 kPa	953.8 ± 1.2
20570 kPa	954 ± 1.2
20601 kPa	953.9 ± 1.2
20634 kPa	954 ± 1.2
20667 kPa	954 ± 1.2
20705 kPa	954 ± 1.2
20736 kPa	954 ± 1.2
20767 kPa	954 ± 1.2
20805 kPa	954.1 ± 1.2
20836 kPa	954.1 ± 1.2
20868 kPa	954 ± 1.2
20906 kPa	954 ± 1.2
20938 kPa	954.2 ± 1.2
20970 kPa	954.1 ± 1.2
21008 kPa	954.2 ± 1.2
21041 kPa	954.1 ± 1.2
21074 kPa	954.1 ± 1.2
21107 kPa	954.2 ± 1.2
21146 kPa	954.2 ± 1.2
21178 kPa	954.1 ± 1.2
21218 kPa	954.3 ± 1.2
21251 kPa	954.4 ± 1.2
21284 kPa	954.4 ± 1.2
21324 kPa	954.4 ± 1.2
21358 kPa	954.4 ± 1.2
21391 kPa	954.4 ± 1.2
21431 kPa	954.4 ± 1.2
21466 kPa	954.4 ± 1.2
21500 kPa	954.5 ± 1.2
21542 kPa	954.5 ± 1.2
21576 kPa	954.5 ± 1.2
21604 kPa	954.5 ± 1.2
21646 kPa	954.4 ± 1.2
21680 kPa	954.7 ± 1.2
21722 kPa	954.6 ± 1.2
21756 kPa	954.6 ± 1.2
21798 kPa	954.5 ± 1.2
21832 kPa	954.6 ± 1.2
21946 kPa	954.8 ± 1.2
21982 kPa	954.6 ± 1.2
22025 kPa	954.7 ± 1.2
22061 kPa	954.8 ± 1.2
22097 kPa	954.7 ± 1.2
22134 kPa	954.9 ± 1.2
22178 kPa	954.9 ± 1.2
22215 kPa	954.9 ± 1.2
22259 kPa	954.9 ± 1.2
22295 kPa	955 ± 1.2
22325 kPa	954.9 ± 1.2
22369 kPa	954.9 ± 1.2
22414 kPa	955 ± 1.2
22451 kPa	955.1 ± 1.2
22490 kPa	955.1 ± 1.2
22537 kPa	955.1 ± 1.2
22576 kPa	955 ± 1.2
22616 kPa	955.2 ± 1.2
22664 kPa	955.1 ± 1.2
22705 kPa	955.3 ± 1.2
22743 kPa	955.2 ± 1.2
22780 kPa	955.2 ± 1.2
22834 kPa	955.5 ± 1.2
22861 kPa	955.3 ± 1.2
22894 kPa	955.3 ± 1.2
22922 kPa	955.3 ± 1.2
22950 kPa	955.3 ± 1.2
22983 kPa	955.3 ± 1.2
23011 kPa	955.4 ± 1.2
23038 kPa	955.4 ± 1.2
23066 kPa	955.4 ± 1.2
23100 kPa	955.3 ± 1.2
23127 kPa	955.5 ± 1.2
23161 kPa	955.5 ± 1.2
23189 kPa	955.5 ± 1.2
23217 kPa	955.6 ± 1.2
23250 kPa	955.5 ± 1.2
23279 kPa	955.6 ± 1.2
23308 kPa	955.5 ± 1.2
23344 kPa	955.5 ± 1.2
23372 kPa	955.7 ± 1.2
23400 kPa	955.5 ± 1.2
23429 kPa	955.7 ± 1.2
23464 kPa	955.7 ± 1.2
23492 kPa	955.6 ± 1.2
23521 kPa	955.6 ± 1.2
23556 kPa	955.6 ± 1.2
23585 kPa	955.8 ± 1.2
23614 kPa	955.8 ± 1.2
23649 kPa	955.8 ± 1.2
23679 kPa	955.8 ± 1.2
23709 kPa	955.9 ± 1.2
23740 kPa	955.8 ± 1.2
23769 kPa	955.8 ± 1.2
23804 kPa	955.8 ± 1.2
23834 kPa	955.8 ± 1.2
23869 kPa	955.8 ± 1.2
23899 kPa	955.9 ± 1.2
23929 kPa	955.9 ± 1.2
23965 kPa	955.9 ± 1.2
23995 kPa	955.9 ± 1.2
24025 kPa	955.9 ± 1.2
24062 kPa	956 ± 1.2
24092 kPa	955.9 ± 1.2
24124 kPa	955.9 ± 1.2
24161 kPa	956 ± 1.2
24191 kPa	956.2 ± 1.2
24223 kPa	956.1 ± 1.2
24260 kPa	956.1 ± 1.2
24291 kPa	956 ± 1.2
24322 kPa	956.2 ± 1.2
24354 kPa	956.1 ± 1.2
24391 kPa	956.2 ± 1.2
24422 kPa	956.1 ± 1.2
24460 kPa	956.2 ± 1.2
24491 kPa	956.3 ± 1.2
24523 kPa	956.3 ± 1.2
24562 kPa	956.3 ± 1.2
24594 kPa	956.3 ± 1.2
24626 kPa	956.3 ± 1.2
24658 kPa	956.4 ± 1.2
24696 kPa	956.4 ± 1.2
24728 kPa	956.4 ± 1.2
24766 kPa	956.4 ± 1.2
24799 kPa	956.4 ± 1.2
24832 kPa	956.5 ± 1.2
24871 kPa	956.5 ± 1.2
24903 kPa	956.5 ± 1.2
24936 kPa	956.6 ± 1.2
24976 kPa	956.5 ± 1.2
25008 kPa	956.6 ± 1.2
25042 kPa	956.6 ± 1.2
25075 kPa	956.5 ± 1.2
25115 kPa	956.5 ± 1.2
25149 kPa	956.7 ± 1.2
25188 kPa	956.6 ± 1.2
25222 kPa	956.6 ± 1.2
25256 kPa	956.7 ± 1.2
25290 kPa	956.7 ± 1.2
25330 kPa	956.6 ± 1.2
25364 kPa	956.7 ± 1.2
25398 kPa	956.8 ± 1.2
25439 kPa	956.8 ± 1.2
25474 kPa	956.8 ± 1.2
25509 kPa	956.8 ± 1.2
25550 kPa	956.8 ± 1.2
25584 kPa	957 ± 1.2
25619 kPa	956.9 ± 1.2
25654 kPa	957 ± 1.2
25695 kPa	957 ± 1.2
25729 kPa	956.9 ± 1.2
25771 kPa	957 ± 1.2
25806 kPa	957.1 ± 1.2
25842 kPa	957.1 ± 1.2
25878 kPa	957.1 ± 1.2
25920 kPa	957.1 ± 1.2
25957 kPa	957 ± 1.2
25993 kPa	957.2 ± 1.2
26028 kPa	957.1 ± 1.2
26071 kPa	957.1 ± 1.2
26107 kPa	957.1 ± 1.2
26150 kPa	957.2 ± 1.2
26186 kPa	957.2 ± 1.2
26223 kPa	957.3 ± 1.2
26259 kPa	957.3 ± 1.2
26303 kPa	957.3 ± 1.2
26340 kPa	957.2 ± 1.2
26384 kPa	957.3 ± 1.2
26421 kPa	957.5 ± 1.2
26460 kPa	957.3 ± 1.2
26498 kPa	957.4 ± 1.2
26535 kPa	957.4 ± 1.2
26579 kPa	957.5 ± 1.2
